Measurements from patent publication US20050009813A1 (priority 2001, published 2005).
Several values for one entry are separate records, joined by “and”; a condition that tells them apart may be missing. Equal values may be shown once. Where a name gives a salt, the structure may show the parent alone.

Key:
[1] = tested on: behavioural despair (acquired immobility); experiment: Forced Swimming Test (Porsolt Swimming Test) on rats; type: in vivo, rat (Sprague Dawley); conditions: for Change relative to control group (acquired immobility) / Acquired Immobility (group mean value in minutes ± standard dev.): rat, SD strain; for Acquired Immobility (group mean value in minutes ± standard dev.): three administrations, 5 min test
Method: To verify whether this MAO-A-inhibitory action in vivo is relevant, deoxypeganine was tested in the “Forced Swimming Test” on rats (R. D. Porsolt et al., Nature 1977; 266(5604): 730-732). […] The time spent with attempts at escape until the animals fall into this psychomotorical inactivation (considered to be a surrogate for depression) is measured; prolonged activity corresponds to antidepressive action.
In the concrete case, […], about 6 weeks old (strain Sprague Dawley); acquired from Charles River UK Ltd.) were divided into 7 groups with 10 animals each. On the first day, after termination of the habituation phase, each animal was placed for 10 minutes in a cylindrical vessel filled about 15 cm high with 25°-warm water; this was followed, after one hour, 19 hours, and 23 hours, by three oral administrations of (depending on the group) either negative control (water), 15 mg/kg positive control (imipramine.HCl), or deoxypeganine.HCl in dosages of 1.0, 2.5, 7.5, 15.0 or 22.5 mg/kg of bodyweight. The volume, administered with the aid of a gastric tube, was in each case 5 ml/kg of bodyweight. One hour after the third of these treatments, each animal was again placed in the vessel for exactly 5 minutes and the time spent in minimal mobility was measured.

Monoamino oxidase B = molecular target: T1, Monoamino oxidase B (Rattus norvegicus, UniProt P19643); experiment: Inhibition of monoamino oxidase B
T1 sequence (P19643 1-520): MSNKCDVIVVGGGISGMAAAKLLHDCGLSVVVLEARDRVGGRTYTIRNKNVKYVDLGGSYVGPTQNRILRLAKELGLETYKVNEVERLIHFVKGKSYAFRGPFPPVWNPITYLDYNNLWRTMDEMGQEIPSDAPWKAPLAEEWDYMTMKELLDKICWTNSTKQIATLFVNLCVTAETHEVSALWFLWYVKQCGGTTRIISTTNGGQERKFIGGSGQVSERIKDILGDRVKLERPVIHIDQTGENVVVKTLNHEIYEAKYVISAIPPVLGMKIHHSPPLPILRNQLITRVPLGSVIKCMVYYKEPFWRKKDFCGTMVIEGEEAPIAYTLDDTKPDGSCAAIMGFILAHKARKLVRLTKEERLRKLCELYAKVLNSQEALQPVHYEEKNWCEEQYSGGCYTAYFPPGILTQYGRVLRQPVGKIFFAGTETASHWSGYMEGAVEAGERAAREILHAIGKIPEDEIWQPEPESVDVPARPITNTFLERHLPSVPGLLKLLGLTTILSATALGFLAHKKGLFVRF

[2] = molecular target: T2, monoamino oxidase A from rat brain (Rattus norvegicus, UniProt P21396); experiment: Inhibition of monoamino oxidase A from rat brain, [3H]serotonine substrate (Medvedev et al.); type: biochemical, rat (Wistar strain); conditions: rat brain MAO-A; 95 μM [3H]serotonine; 1% DMSO in 20 mM potassium dihydrogenphosphate buffer pH 7.4; 10 nM to 10 μM; read-out: semi-maximal inhibitory action (IC50), monoamino oxidase A
T2 sequence (P21396 1-526): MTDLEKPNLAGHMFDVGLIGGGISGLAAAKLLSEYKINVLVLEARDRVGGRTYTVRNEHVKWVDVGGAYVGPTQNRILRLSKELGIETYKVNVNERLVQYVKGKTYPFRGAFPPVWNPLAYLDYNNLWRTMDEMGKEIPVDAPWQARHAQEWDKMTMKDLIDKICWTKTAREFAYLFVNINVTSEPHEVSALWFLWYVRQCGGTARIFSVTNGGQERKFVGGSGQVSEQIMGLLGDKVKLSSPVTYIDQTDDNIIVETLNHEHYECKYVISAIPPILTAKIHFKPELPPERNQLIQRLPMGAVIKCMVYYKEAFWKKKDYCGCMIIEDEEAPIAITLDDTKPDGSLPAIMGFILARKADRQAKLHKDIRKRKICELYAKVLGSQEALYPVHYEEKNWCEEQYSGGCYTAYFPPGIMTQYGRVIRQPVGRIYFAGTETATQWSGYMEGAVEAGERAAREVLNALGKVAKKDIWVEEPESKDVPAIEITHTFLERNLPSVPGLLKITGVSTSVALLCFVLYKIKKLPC
Method: The inhibitory action of deoxypeganine in respect of monoamino oxidase A from rat brain (Wistar strain) was measured in the concentration range of from 10 nM to 10 μM according to the method described by Medvedev et al. (Biochem Pharmacol 1994; 47(2): 303-308) and compared with clorogyline as the positive control, whereby in both cases 95 μM [^3H]serotonine in a solution of 1% dimethylsulfoxide in 20 mM of potassium dihydrogenphosphate buffer pH 7.4 served as substrate.

psychomotoric activation = experiment: Open Field Paradigma; type: in vivo, Sprague-Dawley rats; conditions: treatment for 2 weeks, daily doses of 2.5 to 22.5 mg/kg
From the text: Since such results can in principle also be obtained by psychomotorically activating substances which have no anti-depressive action, the effect of deoxypeganine was also examined, with the same dose range, in the so-called Open Field Paradigma. Here one makes use of the fact that it is stressful for rats to stay in an open, bright area, and therefore such situations are avoided by the rats if possible.

[3] = tested on: cholinergic memory deficits; experiment: Compensation of cholinergic memory deficits in rats with partially destroyed central cholinergic pathways; type: in vivo
From the text: It can be inferred therefrom that the effect observable in the swimming test reaches its maximum at a fraction of the dose necessary for maximal activation of the cholinergic system, which according to the state of the art could not be reckoned with.

With `CN(C)CCCN1c2ccccc2CCc2ccccc21` [imipramine HCl, reference compound] the “Change relative to control group (acquired immobility)” value (“Change relative to control group” below) ([1]; 15 mg/kg p.o., HCl) was −56.5% and −58.9%.
For `Cl.c1ccc2c(c1)CN1CCCC1=N2` [deoxypeganine hydrochloride], the “Acquired Immobility (group mean value in minutes ± standard dev.)” value ([1]; 1.0 mg/kg p.o.) was 3.46 ± 0.83 min, the “Change relative to control group” value ([1]; 1.0 mg/kg p.o.) was “+0.3%” and the “Acquired Immobility (group mean value in minutes ± standard dev.)” value ([1]; 2.5 mg/kg p.o.) was 2.80 ± 1.02 min. The “Change relative to control group” value ([1]; 2.5 mg/kg p.o.) was −18.8%, the “Change relative to control group” value ([1]; 7.5 mg/kg p.o., hydrochloride) was −47.2% and −41.4% and the “Change relative to control group” value ([1]; 15 mg/kg p.o.) was −44.1%. For the same molecule, the “Change relative to control group” value ([1]; 22.5 mg/kg p.o.) was −43.8%.
`c1ccc2c(c1)CN1CCCC1=N2` [deoxypeganine, 1,2,3,9-tetrahydropyrrolo[2,1-b]quinazoline] was tested, and the “inhibition of Type B enzyme (MAO-B), in words” value (Monoamino oxidase B; in vitro) was “not significantly inhibited”, the inhibition at 10 µM (Monoamino oxidase B; read-out: inhibition of monoamino oxidase B) was 15 to 20% and the IC50 [2] was 1490 nM. For the same molecule, the “psychomotoric activation in open field, in words” value (psychomotoric activation) was “no indication of psychomotoric activation”, the “effectiveness in forced swimming test, in words” value ([1]; 2.5 mg/kg) was “only partially effective” and the “effectiveness in forced swimming test, in words” value ([1]; dose of 1 mg/kg) was “not yet effective”. The “dose of maximal action in the Porsolt test” value ([1]; p.o., comparable to the antidepressant imipramine) was 7.5 mg/kg, the “compensation of cholinergic memory deficits, in words” value ([3]; 22.5 mg/kg oral) was “had not yet reached its maximum value” and the “compensation of cholinergic memory deficits, in words” value ([3]; oral dose of 7.5 mg/kg) was “not yet statistically significant”.
